# Values joined by “and” are separate entries in the source; they are usually repeats but may differ in a detail not shown here. Equal values may be shown once. Read-outs that look alike come from different tables or passages of the source.
# Columns and labels:
# [1] = Mouse PK, multiple oral dosing of single compounds; format: in vivo, KM mice; conditions: for AUC(0-inf) / Cmax / Tmax / half-life: po
# Description: Methods for combined single dosing (BGAz001–005) and dosing of single compounds multiple times (BGAz004 and BGAz005) are described in detail in the Supporting Information (PK Data).
# Report on PK results of BGAz-004 by multiple oral dosing
# 7 Materials and instrument combined dosing
# An MS2 Turnover type oscillator was purchased from IKA Work’s Guangzhou (China), and a 5415R ChromatographicanalyseswereconductedusinganAgilent1290InfinityIIhighperformanceliquidchromatography andAgilentTechnologies6470TripleQuadLC/MS.Propranolol(≥90%inpurity,internalstandard,IS)waspurchased fromtheSigmaChemicalCo.(China).Formicacid(HPLCgrade)andmethanol(HPLCgrade)werepurchasedfrom DIKMACo.(China).Allchemicalsandsolventswereanalyticalgrade.WaterwaspurifiedusingaMillipore(AK,USA) laboratoryultra-purewatersystem(0.2μmfilter).
# KMmice,weighing25–35g(BeijingVitalRiverLaboratoryAnimalTechnologyCo.,Ltd.,China)wereutilisedforthe studies.The protocols were approved by the Animal Care and Use Committee, GIBH. Animals were maintained on standard animal chow and waterad libitum, in a climate-controlled room (23±1 °C 30–70% relative humidity, a minimumof tenexchangesof roomairperhouranda12hlight/darkcycle)foroneweekpriortoexperiments.
# 9 Pharmacokinetic studies
# Compound BGAz-004 were dissolved in the solution containing DMSO (2%), ethanol (4%), Cremophor EL (4%) and ddH2O (90%).The mice were given solution with 30 mg/kg bygastric gavagefor 3 days.Whole blood samples (100μL)wereobtainedfromtheorbitalvenousplexusatthefollowingtimepointsafterthethirddaydosing:5,15,30 min and 1, 3, 5, 8, 24 hour. Whole blood samples were collected in heparinised tubes. The plasma fraction was immediately separated by centrifugation. The mice were humanely euthanasia by carbon dioxide 24 hours after […]
# 10 Plasma sample analysis
# 10.1 Standard curve sample preparation
# ThecompoundsweredissolvedinDMSO(2mg/mL)anddilutedwithtoseriesconcentration(methanol:H 2O,1:1,10 μL) and blank plasma (50 μL) were added to 1.5 mL tubes and vortexed for 3 min, then acetonitrile-containing internalstandard(150μL)wasaddedandvortexedforafurther5min,andsubsequentlyspuninacentrifugeat13000 […]
# 10.2 Plasma and preparation
# Plasmasampleswerepreparedusingaproteinprecipitationmethod.Solution(10μL,methanolH 2O,1:1)andplasma samples(50μL)wereaddedto1.5mLtubesandvortexfor3min,thenacetonitrile-containinginternalstandard(150 μL)wasaddedandvortexfor5min,andsubsequentlyspuninacentrifugeat13000× gfor40minat4°C.
# Aftercentrifugation,supernatant(100μL)wastransferto96wellplatesandanalysedbyLC-MS/MSusinganAgilent 1290InfinityIIHPLCandanAgilentTechnologies6470TripleQuadLC/MS.
# Report on PK results of BGAz-005 by multiple oral dosing
# 13 Materials and instrument combined dosing […]
# fromtheSigmaChemicalCo.(China).Formicacid(HPLCgrade)andmethanol(HPLCgrade)werepurchased from […]
# 15 Pharmacokinetic studies
# Compound BGAz-005 were dissolved in the solution containing DMSO (2%), ethanol (4%), Cremophor EL (4%) […]
# 16 Plasma sample analysis
# 16.1 Standard curve sample preparation
# 16.2 Plasma and preparation
# [2] = tested on: HepG2 cells; assay: HepG2 mitochondrial dysfunction (Glu/Gal cytotoxicity, MTT); format: cell-based; conditions: glucose medium
# Experimental: Compounds were solubilized to 30 mM in DMSO. The BGAz compounds were added to the HepG2 cell model in a 96-well microplate in half log dilutions from 100–0.0003 μM (final DMSO concentration 0.3%) using both glucose (DMEM consisting of 25 mM glucose) and galactose (DMEM consisting of 10 mM galactose) media. The compounds were incubated with the cell line for 24 h at 37 °C in a humidified CO2 tissue culture incubator, followed by cell viability staining with MTT (3-(4,5-dimethylthiazol-2-yl)-2.5-diphenyltetrazolium bromide) conversion to the Formazan product, determined by absorbance measurement. The cell viability IC50 was determined in HepG2 glucose and metabolism-modified HepG2 galactose, and the fold change difference between the Glu/Gal IC50 was determined. All experiments were performed in duplicate with the mitochondrial toxicity controls rotenone and Antimycin A and the cytotoxin control tamoxifen.
# [3] = tested on: M. tuberculosis H37Rv; assay: Mycobacterial time kill experiments (total viable counts); format: cell-based, Mycobacterium tuberculosis; conditions: 96 μM
# [4] = tested on: BCG pVV16-mmpL3; format: cell-based, Mycobacterium bovis BCG
# [5] = tested on: M. bovis BCG; format: cell-based, Mycobacterium bovis BCG
# [6] = tested on: BCG; format: cell-based, Mycobacterium bovis BCG; conditions: 0.5 × MIC
# [7] = multiple PO 30 mg/kg, times 4, mean of animals
compound,measurement,setting,value
Brc1cc(Br)cc(C2CC(CN3CCCC3)N2Cc2ccccc2Br)c1 (stereo not shown) [BGAz-004],AUC(0-inf),"[1]; KM, mouse, plasma, 30 mg/kg, multiple PO 30 mg/kg, times 4, mean of animals, read-out: AUC(0-∞)",5420 ng·h/mL
same,Cmax,"[1]; KM, mouse, plasma, 30 mg/kg, multiple PO 30 mg/kg, times 4, mean of animals, read-out: Cmax",364 ng/mL
same,Tmax,"[1]; KM, mouse, plasma, 30 mg/kg, multiple PO 30 mg/kg, times 4, mean of animals, read-out: Tmax",1 h
same,half-life,"[1]; KM, mouse, plasma, 30 mg/kg, multiple PO 30 mg/kg, times 4, mean of animals, read-out: t1/2z (converted)",8.07 h
same,AUC(0-inf),"[1]; KM, mouse, plasma, 30 mg/kg, multiple PO, times 4, 30 mg/kg, summary table, read-out: AUC(0-∞)",5420 ng·h/mL
same,Cmax,"[1]; KM, mouse, plasma, 30 mg/kg, multiple PO, times 4, 30 mg/kg, summary table, read-out: Cmax",364 ng/mL
same,half-life,"[1]; KM, mouse, plasma, 30 mg/kg, multiple PO, times 4, 30 mg/kg, summary table, read-out: T1/2 (converted)",8.07 h
same,Tmax,"[1]; KM, mouse, plasma, 30 mg/kg, multiple PO, times 4, 30 mg/kg, summary table, read-out: Tmax",1 h
same,AUC(0-inf),"[1]; KM, mouse, plasma, 30 mg/kg, multiple daily dosing 4 × 30 mg/kg PO, read-out: AUC0-inf",5420 ng·h/mL
same,Cmax,"[1]; KM, mouse, plasma, 30 mg/kg, multiple daily dosing 4 × 30 mg/kg PO, read-out: Cmax (Mouse, P.O.)",363 ng/mL
same,half-life,"[1]; KM, mouse, plasma, 30 mg/kg, multiple daily dosing 4 × 30 mg/kg PO, read-out: T1/2 (Mouse, P.O.) (converted)",8.1 h
same,Tmax,"[1]; KM, mouse, plasma, 30 mg/kg, multiple daily dosing 4 × 30 mg/kg PO, read-out: Tmax (Mouse, P.O.)",1 h
same,concentration at 0.083 h,"[1]; KM, mouse, plasma, multiple PO 30 mg/kg, times 4, 0.083 h",214 nM and 115 ng/mL
same,concentration at 0.25 h,"[1]; KM, mouse, plasma, multiple PO 30 mg/kg, times 4, 0.25 h",361 nM and 195 ng/mL
same,concentration at 0.5 h,"[1]; KM, mouse, plasma, multiple PO 30 mg/kg, times 4, 0.5 h",590 nM and 319 ng/mL
same,concentration at 1 h,"[1]; KM, mouse, plasma, multiple PO 30 mg/kg, times 4, 1 h",674 nM and 364 ng/mL
same,concentration at 3 h,"[1]; KM, mouse, plasma, multiple PO 30 mg/kg, times 4, 3 h",594 nM and 321 ng/mL
same,concentration at 5 h,"[1]; KM, mouse, plasma, multiple PO 30 mg/kg, times 4, 5 h",268 ng/mL and 496 nM
same,concentration at 8 h,"[1]; KM, mouse, plasma, multiple PO 30 mg/kg, times 4, 8 h",243 ng/mL and 450 nM
same,concentration at 24 h,"[1]; KM, mouse, plasma, multiple PO 30 mg/kg, times 4, 24 h",63.7 ng/mL and 118 nM
same,AUC(0-t),"[1]; KM, mouse, plasma, multiple PO 30 mg/kg, times 4, mean of animals",4760 ng·h/mL
same,CL/F,"[1]; KM, mouse, plasma, multiple PO 30 mg/kg, times 4, mean of animals, read-out: CLz/F (converted)",95.4 mL/min/kg
same,MRT last,"[1]; KM, mouse, plasma, multiple PO 30 mg/kg, times 4, mean of animals, read-out: MRT(0-t)",7.85 h
same,MRT inf,"[1]; KM, mouse, plasma, multiple PO 30 mg/kg, times 4, mean of animals, read-out: MRT(0-∞)",11.7 h
same,Vd/F,"[1]; KM, mouse, plasma, multiple PO 30 mg/kg, times 4, mean of animals, read-out: Vz/F",67.5 L/kg
same,k el,"[1]; KM, mouse, plasma, multiple PO 30 mg/kg, times 4, mean of animals, read-out: λz (converted)",2.89e-05 s⁻¹
same,AUMC(0-t),[1]; [7],36514.994 h*h*μg
same,AUMC(0-∞),[1]; [7],62413.77 h*h*μg
same,C_last,[1]; [7],46.151 µg
same,R_AUC(t/∞),[1]; [7],87.55%
same,VRT(0-t),[1]; [7],41.471 h^2
same,VRT(0-∞),[1]; [7],162.525 h^2
same,"T1/2 (Mouse, P.O.)","[1]; multiple daily dosing 4 × 30 mg/kg PO, 30 mg/kg",8.07 h
same,HepG2 cytotoxicity (in words),[2],negligible effect
same,reduction of total viable count,[3]; after 6 days of exposure,0.79 ± 2.20 log10 CFU mL^–1
same,reduction of total viable count,[3]; after 14 days' exposure,1.90 ± 1.28 log10 CFU mL^–1
same,BCG pVV16-mmpL3 MIC,[4],40 µM
same,"log2FoldChange, gene BCG_0001",[5],-0.1191
same,"log2FoldChange, gene BCG_0002",[5],-0.5569
same,"log2FoldChange, gene BCG_0003",[5],-0.5971
same,"log2FoldChange, gene BCG_0004",[5],-0.2384
same,"log2FoldChange, gene BCG_0005",[5],0.5266
same,TMM and TDM in cell envelope lipids,[6],significant reduction

# Reference: publication PMC10895678 (Journal of Medicinal Chemistry, 2024)
